Test results reported in publication PMC8745332, “Synthesis, Molecular Docking and Biological Characterization of Pyrazine Linked 2-Aminobenzamides as New Class I Selective Histone Deacetylase (HDAC) Inhibitors with Anti-Leukemic Activity” (International Journal of Molecular Sciences, 2021).
Read-outs that look alike come from different tables or passages of the source.

Test system: MOLM-13 cells
Assay: Apoptosis in MOLM-13 cells, annexin-V/PI flow cytometry
Assay type: cell-based, human
Details: for IC50: Homo sapiens
Description: We measured the induction of early (increased exposure of phosphatidylserine on the cell surface and therefore positive staining for annexin-V-FITC) and late apoptosis (positivity for annexin-V and accumulation of propidium iodide, PI) by flow cytometry.
All leukemic cells were kept in RPMI-1640 medium supplemented with 10% FBS and 1%penicillin/streptomycin (Sigma-Aldrich, Taufkirchen, Germany) under standard culture conditions at 37 °C and a 5% CO2 humidified atmosphere. Cells were authenticated as mentioned by us.

Nc1ccccc1NC(=O)c1cnc(N2CCN(Cc3c[nH]c4ccccc34)CC2)cn1 [19f, 5-(4-((1H-indol-3-yl)methyl)piperazin-1-yl)-N-(2-aminophenyl)pyrazine-2-carboxamide]
IC50 (MOLM-13, 48 h, read-out: IC50 (apoptosis, annexin-V/PI)): 318 nM | IC50 (MOLM-13 cells, 24 h, annexin-V/PI, read-out: IC50 for apoptosis induction): 397 nM | IC50 (MOLM-13 cells, after 48 h, read-out: IC50 values for growth inhibition): ~300 nM | fold higher potency than MS-275 (apoptosis induction) (MOLM-13 cells, versus MS-275): 4 fold
